Measured values as given in patent US8877741B2, “Pyrrolidine derivatives, pharmaceutical compositions and uses thereof” (Boehringer Ingelheim International GmbH, priority 2013, dated 2014).
pIC50: −log10 of the molar value.

target: human ACC2 (Homo sapiens (Human), UniProt O00763); assay: ACC2 assay, spectrophotometric 384 well assay (NADH-linked kinetic method); format: biochemical; details: human ACC2 construct lacking the 128 N-terminal amino acids; coupled lactate dehydrogenase/pyruvate kinase reaction, 340 nm, 25° C.
Procedure, shortened: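 ADP formation was monitored as NADH consumption at 340 nm for 15 min at 25 °C, using baculovirus-expressed human ACC2 missing its first 128 amino acids, with 500 μM ATP and 2000 μM each of acetyl-CoA and NADH (final). IC50 was fitted by non-linear regression on low-control-subtracted slopes.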

human ACC2, sequence (O00763 129-2458): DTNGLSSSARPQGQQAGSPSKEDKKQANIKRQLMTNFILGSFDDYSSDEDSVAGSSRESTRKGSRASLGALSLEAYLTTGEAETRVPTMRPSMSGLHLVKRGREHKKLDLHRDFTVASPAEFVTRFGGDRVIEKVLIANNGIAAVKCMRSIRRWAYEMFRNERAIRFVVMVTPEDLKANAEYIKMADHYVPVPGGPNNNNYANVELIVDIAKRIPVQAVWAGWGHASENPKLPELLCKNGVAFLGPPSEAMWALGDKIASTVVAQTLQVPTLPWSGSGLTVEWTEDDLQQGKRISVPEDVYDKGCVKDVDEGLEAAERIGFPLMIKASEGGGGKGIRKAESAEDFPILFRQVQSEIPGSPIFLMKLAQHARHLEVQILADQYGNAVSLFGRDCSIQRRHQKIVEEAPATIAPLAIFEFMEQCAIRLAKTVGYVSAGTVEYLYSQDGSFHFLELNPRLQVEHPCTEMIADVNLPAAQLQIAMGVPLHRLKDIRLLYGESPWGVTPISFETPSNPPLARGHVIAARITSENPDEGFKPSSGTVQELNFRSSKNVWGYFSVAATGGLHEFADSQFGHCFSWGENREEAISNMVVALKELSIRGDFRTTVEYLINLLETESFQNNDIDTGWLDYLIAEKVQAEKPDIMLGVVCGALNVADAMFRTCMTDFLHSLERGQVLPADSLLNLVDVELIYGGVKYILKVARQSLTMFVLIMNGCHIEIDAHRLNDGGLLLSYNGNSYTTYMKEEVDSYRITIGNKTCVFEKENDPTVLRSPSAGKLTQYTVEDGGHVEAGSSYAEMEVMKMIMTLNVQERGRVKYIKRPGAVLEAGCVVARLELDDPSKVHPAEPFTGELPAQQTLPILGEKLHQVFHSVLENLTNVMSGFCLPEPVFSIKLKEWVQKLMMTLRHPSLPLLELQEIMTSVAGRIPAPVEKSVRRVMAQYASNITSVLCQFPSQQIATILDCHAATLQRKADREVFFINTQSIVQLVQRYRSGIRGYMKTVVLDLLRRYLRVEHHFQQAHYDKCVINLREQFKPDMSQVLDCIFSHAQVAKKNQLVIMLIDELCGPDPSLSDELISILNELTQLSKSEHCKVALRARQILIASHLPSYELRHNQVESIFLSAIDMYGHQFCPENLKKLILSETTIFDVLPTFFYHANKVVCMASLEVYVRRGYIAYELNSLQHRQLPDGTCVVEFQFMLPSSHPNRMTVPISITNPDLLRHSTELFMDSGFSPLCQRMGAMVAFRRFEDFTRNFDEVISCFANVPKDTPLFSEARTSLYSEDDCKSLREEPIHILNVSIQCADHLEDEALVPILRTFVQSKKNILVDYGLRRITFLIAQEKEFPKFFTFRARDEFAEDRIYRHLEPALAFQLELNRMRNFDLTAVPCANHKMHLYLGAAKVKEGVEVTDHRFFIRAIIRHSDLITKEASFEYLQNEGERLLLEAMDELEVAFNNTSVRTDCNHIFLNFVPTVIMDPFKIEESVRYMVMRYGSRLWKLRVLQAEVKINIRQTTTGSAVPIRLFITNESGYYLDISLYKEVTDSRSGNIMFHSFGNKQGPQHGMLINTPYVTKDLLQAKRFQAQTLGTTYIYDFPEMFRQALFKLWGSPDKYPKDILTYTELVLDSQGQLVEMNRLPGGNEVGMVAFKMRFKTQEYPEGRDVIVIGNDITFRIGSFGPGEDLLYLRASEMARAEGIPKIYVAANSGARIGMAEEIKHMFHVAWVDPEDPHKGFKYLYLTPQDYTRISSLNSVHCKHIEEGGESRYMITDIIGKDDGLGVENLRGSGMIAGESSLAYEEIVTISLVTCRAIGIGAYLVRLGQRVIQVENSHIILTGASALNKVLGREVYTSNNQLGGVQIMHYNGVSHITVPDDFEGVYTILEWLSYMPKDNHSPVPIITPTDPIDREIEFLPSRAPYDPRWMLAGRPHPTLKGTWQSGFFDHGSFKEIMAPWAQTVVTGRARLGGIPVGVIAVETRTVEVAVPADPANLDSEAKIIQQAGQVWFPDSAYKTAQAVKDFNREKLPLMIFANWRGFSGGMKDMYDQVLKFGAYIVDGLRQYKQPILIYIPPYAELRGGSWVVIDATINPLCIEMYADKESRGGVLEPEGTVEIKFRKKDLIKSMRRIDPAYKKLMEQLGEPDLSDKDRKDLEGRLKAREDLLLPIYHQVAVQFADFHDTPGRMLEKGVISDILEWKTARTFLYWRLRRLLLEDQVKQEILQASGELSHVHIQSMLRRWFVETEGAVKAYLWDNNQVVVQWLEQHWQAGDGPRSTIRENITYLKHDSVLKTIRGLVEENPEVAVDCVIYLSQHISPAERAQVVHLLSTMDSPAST

Structure (SMILES)	pIC50
CNC(=O)c1cccc(C(=O)N[C@@H](C)c2ccc(OC3CCN(c4ccc(OCC5CC5)cc4)C3)cc2)n1 (stereo partly drawn) [Example 2.2]	6.15
CC(C)Oc1cc(N2CCC(Oc3ccc([C@H](C)NC(=O)C4CC4)cc3)C2)ccn1 (stereo partly drawn) [Example 2.3]	6.83
CC(C)Oc1cc(N2CCC(Oc3ccc([C@H](C)NC(=O)c4cnn(C)c4)cc3)C2)ccn1 (stereo partly drawn) [Example 2.4]	6.84
Cc1nocc1C(=O)N[C@@H](C)c1ccc(OC2CCN(c3ccnc(OC(C)C)c3)C2)cc1 (stereo partly drawn) [Example 2.5]	7.15
CC(C)Oc1cc(N2CCC(Oc3ccc([C@H](C)NC(=O)c4ccns4)cc3)C2)ccn1 (stereo partly drawn) [Example 2.6]	6.84
CC(C)Oc1cc(N2CCC(Oc3ccc([C@H](C)NC(=O)CC#N)cc3)C2)ccn1 (stereo partly drawn) [Example 2.7]	6.41
CC(C)Oc1cc(N2CCC(Oc3ccc([C@H](C)NC(=O)c4cn[nH]c4)cc3)C2)ccn1 (stereo partly drawn) [Example 2.8]	7.19
CC(C)Oc1cc(N2CCC(Oc3ccc([C@H](C)NC(=O)c4ccncc4)cc3)C2)ccn1 (stereo partly drawn) [Example 2.9]	6.06
CC(C)Oc1cc(N2CCC(Oc3ccc([C@H](C)NC(=O)c4ccno4)cc3)C2)ccn1 (stereo partly drawn) [Example 2.10]	6.17
CC(C)Oc1cc(N2CCC(Oc3ccc([C@H](C)NC(=O)CC(F)(F)F)cc3)C2)ccn1 (stereo partly drawn) [Example 2.11]	6.00
Cc1occc1C(=O)N[C@@H](C)c1ccc(OC2CCN(c3ccnc(OC(C)C)c3)C2)cc1 (stereo partly drawn) [Example 2.12]	6.04
CC(C)Oc1cc(N2CCC(Oc3ccc([C@H](C)NC(=O)C(C)F)cc3)C2)ccn1 (stereo partly drawn) [Example 2.13]	6.10
CC(C)Oc1cc(N2CCC(Oc3ccc([C@H](C)NC(=O)C4CCOC4)cc3)C2)ccn1 (stereo partly drawn) [Example 2.15]	6.11
CC(C)Oc1cc(N2CCC(Oc3ccc([C@H](C)NC(=O)C4(C(F)(F)F)CC4)cc3)C2)ccn1 (stereo partly drawn) [Example 2.17]	6.22
CC(C)Oc1cc(N2CCC(Oc3ccc([C@H](C)NC(=O)c4ccco4)cc3)C2)ccn1 (stereo partly drawn) [Example 2.18]	6.06
CC(C)Oc1cc(N2CCC(Oc3ccc([C@H](C)NC(=O)C(F)F)cc3)C2)ccn1 (stereo partly drawn) [Example 2.19]	6.60

Structure (SMILES)	pIC50
CC(C)Oc1cc(N2CCC(Oc3ccc([C@H](C)NC(=O)c4ccoc4)cc3)C2)ccn1 (stereo partly drawn) [Example 2.20]	6.96
CC(C)Oc1cc(N2CCC(Oc3ccc([C@H](C)NC(=O)C4(C)CC4)cc3)C2)ccn1 (stereo partly drawn) [Example 2.21]	6.41
CC(=O)Nc1cncc(C(=O)N[C@@H](C)c2ccc(OC3CCN(c4ccnc(OC(C)C)c4)C3)cc2)c1 (stereo partly drawn) [Example 2.22]	6.00
CC(C)Oc1cc(N2CCC(Oc3ccc([C@H](C)NC(=O)C(C)C#N)cc3)C2)ccn1 (stereo partly drawn) [Example 2.23]	6.01
CC(C)Oc1cc(N2CCC(Oc3ccc([C@H](C)NC(=O)c4cncs4)cc3)C2)ccn1 (stereo partly drawn) [Example 2.24]	6.70
CC(C)Oc1cc(N2CCC(Oc3ccc([C@H](C)NC(=O)C4CCC4)cc3)C2)ccn1 (stereo partly drawn) [Example 2.25]	6.25
CC(=O)Nc1cc(C(=O)N[C@@H](C)c2ccc(OC3CCN(c4ccnc(OC(C)C)c4)C3)cc2)ccn1 (stereo partly drawn) [Example 2.26]	6.33
CC(C)Oc1cc(N2CCC(Oc3ccc([C@H](C)NC(=O)C4(C#N)CC4)cc3)C2)ccn1 (stereo partly drawn) [Example 2.27]	6.24
CC(C)Oc1cc(N2CCC(Oc3ccc([C@H](C)NC(=O)c4ccon4)cc3)C2)ccn1 (stereo partly drawn) [Example 2.28]	6.29
CC(C)Oc1cc(N2CCC(Oc3ccc([C@H](C)NC(=O)C(C)(F)F)cc3)C2)ccn1 (stereo partly drawn) [Example 2.29]	6.57
CCC(=O)N[C@@H](C)c1ccc(OC2CCN(c3ccnc(OC(C)C)c3)C2)cc1 (stereo partly drawn) [Example 2.30]	6.34
Cc1cc(CC(=O)N[C@@H](C)c2ccc(OC3CCN(c4ccnc(OC(C)C)c4)C3)cc2)on1 (stereo partly drawn) [Example 2.31]	6.02
C[C@H](NC(=O)C(F)F)c1ccc(OC2CCN(c3cccc(C(F)(F)F)n3)C2)cc1 (stereo partly drawn) [Example 2.32]	6.92
CCC(=O)N[C@@H](C)c1ccc(OC2CCN(c3ccc(OCC4CC4(F)F)cn3)C2)cc1 (stereo partly drawn) [Example 2.33]	7.26
C[C@H](NC(=O)c1cn[nH]c1)c1ccc(OC2CCN(c3ccc(OCC4CC4(F)F)cn3)C2)cc1 (stereo partly drawn) [Example 2.34]	7.16
C[C@H](NC(=O)C(C)(F)F)c1ccc(OC2CCN(c3ccc(OCC4CC4(F)F)cn3)C2)cc1 (stereo partly drawn) [Example 2.35]	6.56

Continued, values first:

pIC50	Structure (SMILES)
6.89	C[C@H](NC(=O)c1cnn(C)c1)c1ccc(OC2CCN(c3cccc(C(F)(F)F)n3)C2)cc1 (stereo partly drawn) [Example 2.36]
6.61	C[C@H](NC(=O)C1(C(F)(F)F)CC1)c1ccc(OC2CCN(c3cccc(C(F)(F)F)n3)C2)cc1 (stereo partly drawn) [Example 2.37]
6.06	CC(C)C(=O)N[C@@H](C)c1ccc(OC2CCN(c3cccc(C(F)(F)F)n3)C2)cc1 (stereo partly drawn) [Example 2.38]
6.21	Cc1ncoc1C(=O)N[C@@H](C)c1ccc(OC2CCN(c3cccc(C(F)(F)F)n3)C2)cc1 (stereo partly drawn) [Example 2.39]
6.86	C[C@H](NC(=O)C1(C)CC1)c1ccc(OC2CCN(c3cccc(C(F)(F)F)n3)C2)cc1 (stereo partly drawn) [Example 2.40]
6.50	CCC(=O)N[C@@H](C)c1ccc(OC2CCN(c3cccc(C(F)(F)F)n3)C2)cc1 (stereo partly drawn) [Example 2.41]
6.17	C[C@H](NC(=O)CCC#N)c1ccc(OC2CCN(c3cccc(C(F)(F)F)n3)C2)cc1 (stereo partly drawn) [Example 2.42]
7.24	Cc1nocc1C(=O)N[C@@H](C)c1ccc(OC2CCN(c3cccc(C(F)(F)F)n3)C2)cc1 (stereo partly drawn) [Example 2.43]
6.00	C[C@H](NC(=O)c1ccnc(F)c1)c1ccc(OC2CCN(c3cccc(C(F)(F)F)n3)C2)cc1 (stereo partly drawn) [Example 2.44]
7.00	C[C@H](NC(=O)c1cnsc1)c1ccc(OC2CCN(c3cccc(C(F)(F)F)n3)C2)cc1 (stereo partly drawn) [Example 2.45]
7.22	C[C@H](NC(=O)c1cncs1)c1ccc(OC2CCN(c3cccc(C(F)(F)F)n3)C2)cc1 (stereo partly drawn) [Example 2.46]
6.05	C[C@H](NC(=O)C1CCC1)c1ccc(OC2CCN(c3cccc(C(F)(F)F)n3)C2)cc1 (stereo partly drawn) [Example 2.48]
6.25	C[C@H](NC(=O)C1CC1)c1ccc(OC2CCN(c3cccc(C(F)(F)F)n3)C2)cc1 (stereo partly drawn) [Example 2.49]
6.05	Cc1cncc(C(=O)N[C@@H](C)c2ccc(OC3CCN(c4cccc(C(F)(F)F)n4)C3)cc2)c1 (stereo partly drawn) [Example 2.50]
6.89	C[C@H](NC(=O)c1ccon1)c1ccc(OC2CCN(c3cccc(C(F)(F)F)n3)C2)cc1 (stereo partly drawn) [Example 2.51]
6.56	C[C@H](NC(=O)c1ccno1)c1ccc(OC2CCN(c3cccc(C(F)(F)F)n3)C2)cc1 (stereo partly drawn) [Example 2.52]
6.50	Cc1nnsc1C(=O)N[C@@H](C)c1ccc(OC2CCN(c3cccc(C(F)(F)F)n3)C2)cc1 (stereo partly drawn) [Example 2.53]
6.34	C[C@H](NC(=O)c1ccnc(F)c1)c1ccc(OC2CCN(c3cccc(C(F)(F)F)n3)C2)cc1 (stereo partly drawn) [Example 2.54]
6.37	C[C@H](NC(=O)CCO)c1ccc(OC2CCN(c3cccc(C(F)(F)F)n3)C2)cc1 (stereo partly drawn) [Example 2.55]
6.76	C[C@H](NC(=O)C1CC1)c1ccc(OC2CCN(c3ccc(OCC4CC4(F)F)cn3)C2)cc1 (stereo partly drawn) [Example 2.56]

pIC50	Structure (SMILES)
6.59	C[C@H](NC(=O)c1cnc(N)o1)c1ccc(OC2CCN(c3ccc(OCC4CC4(F)F)cn3)C2)cc1 (stereo partly drawn) [Example 2.57]
7.16	Cc1oncc1C(=O)N[C@@H](C)c1ccc(OC2CCN(c3ccnc(OC(C)C)c3)C2)cc1 (stereo partly drawn) [Example 2.58]
7.26	C[C@H](NC(=O)c1cncs1)c1ccc(OC2CCN(c3ccc(OCC4CC4(F)F)cn3)C2)cc1 (stereo partly drawn) [Example 2.59]
7.46	C[C@H](NC(=O)C(F)F)c1ccc(OC2CCN(c3ccc(OCC4CC4(F)F)cn3)C2)cc1 (stereo partly drawn) [Example 2.60]
7.46	Cc1cc(C(=O)N[C@@H](C)c2ccc(OC3CCN(c4cccc(C(F)(F)F)n4)C3)cc2)no1 (stereo partly drawn) [Example 2.61]
6.76	C[C@H](NC(=O)c1ccnc(C#N)c1)c1ccc(OC2CCN(c3cccc(C(F)(F)F)n3)C2)cc1 (stereo partly drawn) [Example 2.62]
6.69	C[C@H](NC(=O)C(C)(F)F)c1ccc(OC2CCN(c3cccc(C(F)(F)F)n3)C2)cc1 (stereo partly drawn) [Example 2.63]
7.35	C[C@H](NC(=O)c1cc[nH]n1)c1ccc(OC2CCN(c3cccc(C(F)(F)F)n3)C2)cc1 (stereo partly drawn) [Example 2.64]
7.07	C[C@H](NC(=O)C1(C#N)CC1)c1ccc(OC2CCN(c3ccnc(OCC4CC4)c3)C2)cc1 (stereo partly drawn) [Example 2.65]
7.30	CCC(=O)N[C@@H](C)c1ccc(OC2CCN(c3ccnc(OCC4CC4)c3)C2)cc1 (stereo partly drawn) [Example 2.66]
7.34	C[C@H](NC(=O)c1cnco1)c1ccc(OC2CCN(c3ccnc(OCC4CC4)c3)C2)cc1 (stereo partly drawn) [Example 2.67]
6.58	C[C@H](NC(=O)[C@@H](C)O)c1ccc(OC2CCN(c3ccnc(OCC4CC4)c3)C2)cc1 (stereo partly drawn) [Example 2.68]
6.55	C[C@H](NC(=O)c1cnn(C)c1Cl)c1ccc(OC2CCN(c3ccnc(OCC4CC4)c3)C2)cc1 (stereo partly drawn) [Example 2.69]
7.00	C[C@H](NC(=O)c1ccon1)c1ccc(OC2CCN(c3ccnc(OCC4CC4)c3)C2)cc1 (stereo partly drawn) [Example 2.70]
6.96	C[C@H](NC(=O)CC#N)c1ccc(OC2CCN(c3ccnc(OCC4CC4)c3)C2)cc1 (stereo partly drawn) [Example 2.71]
6.89	C[C@H](NC(=O)CO)c1ccc(OC2CCN(c3ccnc(OCC4CC4)c3)C2)cc1 (stereo partly drawn) [Example 2.72]
7.19	C[C@H](NC(=O)C1(C)CC1)c1ccc(OC2CCN(c3ccnc(OCC4CC4)c3)C2)cc1 (stereo partly drawn) [Example 2.73]
6.44	C[C@H](NC(=O)c1cnc(N)o1)c1ccc(OC2CCN(c3ccnc(OCC4CC4)c3)C2)cc1 (stereo partly drawn) [Example 2.74]
7.41	COCC(=O)Nc1nc(C)c(C(=O)N[C@@H](C)c2ccc(OC3CCN(c4ccnc(OCC5CC5)c4)C3)cc2)s1 (stereo partly drawn) [Example 2.75]
7.16	C[C@H](NC(=O)c1cnn(C)c1)c1ccc(OC2CCN(c3ccnc(OCC4CC4)c3)C2)cc1 (stereo partly drawn) [Example 2.77]
